The values that follow come from ChEMBL document CHEMBL1201862, “PubChem BioAssay data set” (2004).

Each structure is given as a SMILES string. Activity calls are given as the source filed them. A value given as a limit tells only on which side of the number the result lay.

Holding throughout (format): functional
Test [1] concerns the target Vascular endothelial growth factor receptor 3 (Homo sapiens, UniProt P35916).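 Note: value from a kinome-wide profiling panel, with FLT4 as the panel member.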
The target of test [2] is Cyclin-dependent kinase 5 (Homo sapiens, UniProt Q00535).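 Note: CDK5 measured as one member of a kinase profiling panel.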
Chain of Cyclin-dependent kinase 5 (Q00535 whole entry): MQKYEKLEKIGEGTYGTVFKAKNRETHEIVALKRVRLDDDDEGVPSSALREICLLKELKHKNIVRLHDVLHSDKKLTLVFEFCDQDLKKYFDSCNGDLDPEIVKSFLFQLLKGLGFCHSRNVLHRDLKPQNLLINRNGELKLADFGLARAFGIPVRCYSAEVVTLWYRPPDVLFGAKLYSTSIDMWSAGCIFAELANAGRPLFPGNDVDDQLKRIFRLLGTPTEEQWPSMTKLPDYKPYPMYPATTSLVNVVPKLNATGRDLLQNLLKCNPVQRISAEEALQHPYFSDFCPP
Test [3] in a line: Luminescence Cell-Based Dose Response HTS to Identify Activators of Luciferase Translation or Activity in H4 […] Cells. [Related pubchem assays: 1829 (Project Summary), 1814 (Primary HTS)].
In test [4] the target is T1, Apoptotic protease-activating factor 1 (Homo sapiens, UniProt O14727).
T1 sequence (O14727 whole entry): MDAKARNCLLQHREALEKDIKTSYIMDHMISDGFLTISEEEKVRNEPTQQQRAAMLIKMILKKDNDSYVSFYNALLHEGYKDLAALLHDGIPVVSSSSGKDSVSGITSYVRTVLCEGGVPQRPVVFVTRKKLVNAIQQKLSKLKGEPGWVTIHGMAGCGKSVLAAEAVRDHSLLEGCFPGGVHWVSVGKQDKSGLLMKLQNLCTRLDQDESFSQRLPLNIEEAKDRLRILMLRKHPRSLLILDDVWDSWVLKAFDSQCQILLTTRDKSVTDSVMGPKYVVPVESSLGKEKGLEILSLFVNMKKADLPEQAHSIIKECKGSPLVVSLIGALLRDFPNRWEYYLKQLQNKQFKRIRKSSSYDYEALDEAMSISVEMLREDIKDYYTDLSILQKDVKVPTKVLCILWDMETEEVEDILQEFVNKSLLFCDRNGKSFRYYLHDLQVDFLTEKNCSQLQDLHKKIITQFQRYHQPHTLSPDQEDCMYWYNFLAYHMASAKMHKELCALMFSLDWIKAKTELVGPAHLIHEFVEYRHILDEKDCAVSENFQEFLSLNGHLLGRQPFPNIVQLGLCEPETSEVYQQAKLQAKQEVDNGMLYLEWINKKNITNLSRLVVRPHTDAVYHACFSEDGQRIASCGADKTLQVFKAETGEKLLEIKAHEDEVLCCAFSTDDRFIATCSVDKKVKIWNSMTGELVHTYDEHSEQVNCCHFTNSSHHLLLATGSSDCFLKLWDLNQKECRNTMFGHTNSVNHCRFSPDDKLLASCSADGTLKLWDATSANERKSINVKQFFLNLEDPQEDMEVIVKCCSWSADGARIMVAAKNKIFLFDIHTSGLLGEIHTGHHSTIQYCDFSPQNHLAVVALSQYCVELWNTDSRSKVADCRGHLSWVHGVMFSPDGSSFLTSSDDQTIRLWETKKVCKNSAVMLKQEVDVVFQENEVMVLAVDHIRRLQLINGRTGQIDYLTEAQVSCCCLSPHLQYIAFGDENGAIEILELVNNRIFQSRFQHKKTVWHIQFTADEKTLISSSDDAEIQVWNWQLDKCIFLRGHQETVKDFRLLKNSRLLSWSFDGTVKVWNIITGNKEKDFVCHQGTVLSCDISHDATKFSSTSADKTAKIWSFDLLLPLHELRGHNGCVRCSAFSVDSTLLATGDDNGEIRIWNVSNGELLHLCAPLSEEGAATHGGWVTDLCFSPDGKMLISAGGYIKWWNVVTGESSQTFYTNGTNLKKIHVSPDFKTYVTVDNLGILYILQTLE

Test [5] deals with Casein kinase I isoform gamma-1 (Homo sapiens, UniProt Q9HCP0).
Chain of Casein kinase I isoform gamma-1 (Q9HCP0 whole entry, canonical isoform): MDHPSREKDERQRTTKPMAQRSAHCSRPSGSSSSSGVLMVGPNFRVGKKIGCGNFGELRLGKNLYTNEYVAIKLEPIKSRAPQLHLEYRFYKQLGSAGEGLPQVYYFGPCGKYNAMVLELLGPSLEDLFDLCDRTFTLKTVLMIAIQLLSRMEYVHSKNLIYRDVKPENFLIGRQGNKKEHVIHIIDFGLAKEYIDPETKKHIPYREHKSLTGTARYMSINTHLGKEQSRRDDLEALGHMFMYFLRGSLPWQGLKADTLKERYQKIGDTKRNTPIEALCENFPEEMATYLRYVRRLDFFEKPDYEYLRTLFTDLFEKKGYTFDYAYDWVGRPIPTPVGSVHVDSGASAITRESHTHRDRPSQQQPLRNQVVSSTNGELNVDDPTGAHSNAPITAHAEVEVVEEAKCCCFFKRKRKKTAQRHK
Test [6] addresses Serine/threonine-protein kinase PLK1 (Homo sapiens, UniProt P53350).
Test [7] deals with Serine/threonine-protein kinase Chk2 (Homo sapiens, UniProt O96017).
Chain of Serine/threonine-protein kinase Chk2 (O96017 whole entry): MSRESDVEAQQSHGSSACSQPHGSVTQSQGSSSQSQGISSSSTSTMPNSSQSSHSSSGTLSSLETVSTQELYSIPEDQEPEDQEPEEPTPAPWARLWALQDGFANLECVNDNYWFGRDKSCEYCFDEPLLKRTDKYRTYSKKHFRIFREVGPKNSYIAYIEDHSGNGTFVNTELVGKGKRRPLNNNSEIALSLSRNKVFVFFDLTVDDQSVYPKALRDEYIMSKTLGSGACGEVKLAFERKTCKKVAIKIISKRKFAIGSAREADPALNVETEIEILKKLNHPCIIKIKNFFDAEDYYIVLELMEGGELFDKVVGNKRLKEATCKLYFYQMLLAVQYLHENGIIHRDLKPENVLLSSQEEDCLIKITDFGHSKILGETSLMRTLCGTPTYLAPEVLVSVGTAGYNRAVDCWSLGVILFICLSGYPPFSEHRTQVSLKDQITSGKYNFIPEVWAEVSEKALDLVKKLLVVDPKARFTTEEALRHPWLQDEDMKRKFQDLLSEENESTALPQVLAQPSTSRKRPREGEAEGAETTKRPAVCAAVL

Chain of Serine/threonine-protein kinase PLK1 (P53350 whole entry): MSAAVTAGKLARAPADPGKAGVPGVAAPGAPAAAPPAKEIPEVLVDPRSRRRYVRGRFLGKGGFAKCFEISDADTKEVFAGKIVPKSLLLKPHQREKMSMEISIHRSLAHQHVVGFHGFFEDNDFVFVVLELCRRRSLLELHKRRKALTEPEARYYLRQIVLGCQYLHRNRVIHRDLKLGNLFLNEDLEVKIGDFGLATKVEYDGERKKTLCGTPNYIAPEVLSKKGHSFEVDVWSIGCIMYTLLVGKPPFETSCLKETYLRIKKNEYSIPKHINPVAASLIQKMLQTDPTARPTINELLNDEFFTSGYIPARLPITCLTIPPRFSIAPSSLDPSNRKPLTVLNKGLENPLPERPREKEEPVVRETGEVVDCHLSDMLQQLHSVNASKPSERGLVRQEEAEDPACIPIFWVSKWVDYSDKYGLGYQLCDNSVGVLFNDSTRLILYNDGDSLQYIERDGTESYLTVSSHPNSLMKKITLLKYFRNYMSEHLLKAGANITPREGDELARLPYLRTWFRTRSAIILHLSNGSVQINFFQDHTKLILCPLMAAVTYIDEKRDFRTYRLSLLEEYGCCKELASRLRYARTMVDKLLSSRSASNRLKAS
Chain of Vascular endothelial growth factor receptor 3 (P35916 whole entry): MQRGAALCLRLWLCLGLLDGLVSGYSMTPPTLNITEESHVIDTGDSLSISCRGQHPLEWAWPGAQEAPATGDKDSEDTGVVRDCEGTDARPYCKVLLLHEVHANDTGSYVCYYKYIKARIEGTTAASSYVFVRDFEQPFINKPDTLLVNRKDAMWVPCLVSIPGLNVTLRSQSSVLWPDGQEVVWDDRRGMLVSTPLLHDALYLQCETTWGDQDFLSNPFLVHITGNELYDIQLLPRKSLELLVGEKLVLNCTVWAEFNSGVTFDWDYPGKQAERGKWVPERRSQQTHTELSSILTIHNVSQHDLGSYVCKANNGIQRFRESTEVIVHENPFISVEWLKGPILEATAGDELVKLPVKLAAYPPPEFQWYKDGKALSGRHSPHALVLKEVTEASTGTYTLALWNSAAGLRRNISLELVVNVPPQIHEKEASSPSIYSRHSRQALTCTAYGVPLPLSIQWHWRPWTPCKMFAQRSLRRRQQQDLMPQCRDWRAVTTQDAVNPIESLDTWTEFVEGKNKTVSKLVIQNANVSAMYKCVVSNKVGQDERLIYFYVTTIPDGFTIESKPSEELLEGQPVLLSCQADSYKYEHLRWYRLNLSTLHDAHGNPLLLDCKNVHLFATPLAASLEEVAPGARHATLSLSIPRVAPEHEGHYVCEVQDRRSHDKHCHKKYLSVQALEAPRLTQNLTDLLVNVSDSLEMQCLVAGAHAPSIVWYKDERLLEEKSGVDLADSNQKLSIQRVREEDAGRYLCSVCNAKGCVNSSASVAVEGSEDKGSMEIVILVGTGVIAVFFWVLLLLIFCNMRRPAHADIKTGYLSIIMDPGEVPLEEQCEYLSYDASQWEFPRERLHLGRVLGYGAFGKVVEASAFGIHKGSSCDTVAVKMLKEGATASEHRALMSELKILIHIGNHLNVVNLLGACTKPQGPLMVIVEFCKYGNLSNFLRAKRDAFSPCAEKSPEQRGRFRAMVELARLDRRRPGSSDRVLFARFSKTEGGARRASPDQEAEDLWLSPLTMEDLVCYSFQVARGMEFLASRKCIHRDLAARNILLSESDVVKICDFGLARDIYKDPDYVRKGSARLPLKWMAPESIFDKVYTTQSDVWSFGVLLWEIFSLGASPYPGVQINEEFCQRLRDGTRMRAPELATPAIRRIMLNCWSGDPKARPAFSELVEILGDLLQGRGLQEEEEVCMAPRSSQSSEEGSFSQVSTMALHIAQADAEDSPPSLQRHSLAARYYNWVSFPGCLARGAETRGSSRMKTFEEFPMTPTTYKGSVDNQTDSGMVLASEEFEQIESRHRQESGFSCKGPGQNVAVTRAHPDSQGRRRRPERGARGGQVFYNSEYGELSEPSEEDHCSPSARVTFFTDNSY

Usually Ki stands for a dissociation constant, usually derived from enzyme kinetics or from competition with a known ligand. Regarding `COC(C(=O)N1Cc2[nH]nc(NC(=O)c3ccc(N4CCN(C)CC4)cc3)c2C1)c1ccccc1` (configuration not stated), in test [1], the Ki was 0.158 µM (active).

In the case of `CC(C)(O)c1cn(-c2ccc3[nH]ncc3c2)nn1`, the Ki in test [2] is 5.01 µM (active).

In general, EC50 refers to the concentration needed to bring the measured effect to its halfway point. What is called IC50 is the point on the concentration scale where inhibition reaches its midpoint. For `O=C1C2=[N+]([O-])[C@H]3CCCC[C@H]3[N+]([O-])=C2c2ccccc21`, in test [3], the EC50 was 14.9 µM (active). Further, the IC50 in test [4] is 18.1 µM (active).

Regarding `NC1CCC(Nc2nccc(-c3c[nH]c4ncccc34)n2)CC1` (configuration not stated), the inhibition constant Ki was 0.1 µM (active) in test [5], > 7.94 µM (inactive) in test [6] and > 1.58 µM (inactive) in test [7].
